This note sets out measurements from patent US12391671B2, “Allosteric EGFR inhibitors and methods of use thereof” (Dana-Farber Cancer Institute, Inc., priority 2019, dated 2025).

Where a name gives a salt, the structure may show the parent alone. Read-outs that look alike come from different tables or passages of the source.

One assay deals with EGFR L858R/T790M (Homo sapiens (Human), UniProt P00533, L858R/T790M). The assay can be described thus: HTRF-based EGFR biochemical assay (L858R/T790M). Conditions: 100 μM ATP, enzyme 0.02 nM. Here is the method: (§1) Example 25: HTRF-Based EGFR Biochemical Assays
EGFR L858R/T790M, sequence (P00533 25-1210 T790M/L858R): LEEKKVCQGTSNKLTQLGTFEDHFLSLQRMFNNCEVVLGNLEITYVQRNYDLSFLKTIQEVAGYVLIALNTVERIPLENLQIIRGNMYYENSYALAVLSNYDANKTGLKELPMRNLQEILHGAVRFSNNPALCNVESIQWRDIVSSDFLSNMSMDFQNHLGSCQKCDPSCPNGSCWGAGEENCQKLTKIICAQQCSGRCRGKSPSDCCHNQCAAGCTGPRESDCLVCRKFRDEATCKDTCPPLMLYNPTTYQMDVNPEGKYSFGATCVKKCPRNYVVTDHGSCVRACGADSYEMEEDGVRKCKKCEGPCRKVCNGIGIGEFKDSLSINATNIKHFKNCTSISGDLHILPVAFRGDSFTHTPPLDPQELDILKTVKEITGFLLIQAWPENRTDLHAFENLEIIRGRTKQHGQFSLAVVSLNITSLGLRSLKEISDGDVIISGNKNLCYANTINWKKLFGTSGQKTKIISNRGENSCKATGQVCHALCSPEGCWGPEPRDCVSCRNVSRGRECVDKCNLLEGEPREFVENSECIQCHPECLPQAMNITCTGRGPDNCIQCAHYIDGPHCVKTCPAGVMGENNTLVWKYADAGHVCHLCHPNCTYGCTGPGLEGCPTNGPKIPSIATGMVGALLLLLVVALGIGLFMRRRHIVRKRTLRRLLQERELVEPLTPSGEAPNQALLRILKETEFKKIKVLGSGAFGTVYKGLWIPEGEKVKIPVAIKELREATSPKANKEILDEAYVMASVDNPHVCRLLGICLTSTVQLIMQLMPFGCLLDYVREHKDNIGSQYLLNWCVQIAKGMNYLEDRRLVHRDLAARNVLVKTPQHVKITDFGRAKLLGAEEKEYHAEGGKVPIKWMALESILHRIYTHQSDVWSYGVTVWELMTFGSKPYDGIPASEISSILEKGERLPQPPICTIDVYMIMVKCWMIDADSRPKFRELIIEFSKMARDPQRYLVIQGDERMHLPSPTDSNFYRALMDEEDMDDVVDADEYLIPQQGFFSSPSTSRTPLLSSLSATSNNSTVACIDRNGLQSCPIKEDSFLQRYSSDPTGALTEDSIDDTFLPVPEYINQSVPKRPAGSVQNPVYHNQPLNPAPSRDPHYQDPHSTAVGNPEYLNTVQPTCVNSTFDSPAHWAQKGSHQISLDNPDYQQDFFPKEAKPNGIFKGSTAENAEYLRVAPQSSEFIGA
(§2) EGFR biochemical activity measurements were carried out using the homogeneous time-resolved fluorescence (HTRF) assay (Cisbio), inhibitors and DMSO normalizations were first dispensed to empty black low-volume 384-well plates (Corning) with 0300 digital liquid dispenser (HP). All reactions were carried out at room temperature and solutions were added to plates with a Multidrop Combi Reagent Dispenser (ThermoFisher). The reaction mixture (10 μL final volume) contained 1 μM tyrosine kinase peptide-biotin substrate and mutant EGFR in a reaction buffer (50 mM HEPES pH 7.0, 5 mM MgCl2, 1 mM MnCl2, 0.01% BSA, 2 mM TCEP, 0.1 mM NaVO4). Enzyme concentrations were adjusted to accommodate varying kinase activities (L858R 0.1 nM, L858R/T790M 0.02 nM). Enzyme reaction solution (2× concentrations, 5 μL) was added to 384-well plates containing compounds and incubated for 30 mins. Enzyme reactions were initiated with the addition of 5 μL of ATP to a final concentration of 100 μM and reacted for 20 mins. Reactions were quenched with the addition of 10 μL of phospho-tyrosine antibody-Europium(III) cryptate (1-to-180 volume ratio) and Streptavidin-XL665 (46.7 nM) in EDTA-containing detection buffer, then incubated at room temperature for 1 hour, and read with a PHERAstar plate reader (excitation=337 nm, emission=620 nm and 665 nm).
A general note: In TR-FRET formats the signal depends on donor and acceptor labels being close together.

For assay [1], the system named is EGFR mutant L858R/T790M Ba/F3 cells. The assay can be described thus: Ba/F3 cell proliferation model (Cell Titer Glo), EGFR L858R/T790M. The assay is classed as cell-based, murine. Conditions: 72 hours. The source says:
Example 26: Ba/F3 Cell Proliferation Models
The EGFR mutant L858R and L858R/T790M Ba/F3 cells have been previously described (Zhou, W., et al. Nature 462, 2009, 1070-1074). All cell lines were maintained in RPM 1640 (Cellgro; Mediatech Inc., Herndon. CA) supplemented with 10% FBS, 100 units/mL penicillin, 100 units/mL streptomycin. The EGFR I941R mutation was introduced via site directed mutagenesis using the Quick Change Site-Directed Mutagenesis kit (Stratagene; La Jolla, CA) according to the manufacturer's instructions. All constructs were confirmed by DNA sequencing. The constructs were shuttled into the retroviral vector JP1540 using the Cre-recombination system (Agilent Technologies, Santa Clara, CA). Ba/F3 cells were then infected with retrovirus per standard protocols, as described previously (Zhou, et al, Nature 2009). Stable clones were obtained by selection in puromycin (2 μg/ml).
Growth and inhibition of growth was assessed by the Cell Titer Glo® assay (Promega, Madison, WI) and was performed according to the manufacturer's instructions. The Cell Titer Glo® assay is a luminescence-based method used to determine the number of viable cells based on quantitation of the ATP present, which is directly proportional to the amount of metabolically active cells present. Ba/F3 cells of different EGFR genotypes were exposed to compounds as a single agent or in combination with 1 μg/mL cetuximab for 72 hours and the number of cells used per experiment was determined empirically as has been previously established (Zhou, et al., Nature 2009). All experimental points were set up in triplicates in 384-well plates and all experiments were repeated at least three times. […] The curves were fitted using a non-linear regression model with a sigmoidal dose response.
(ATP-based viability assays read luminescence as a measure of living cells.)

In another assay the target is EGFR L858R (Homo sapiens (Human), UniProt P00533, L858R). The assay can be described thus: HTRF-based EGFR biochemical assay (L858R). To be noted: 100 μM ATP, enzyme 0.1 nM. As to the method:
as §1, §2

The mark [2] stands for this setting: Mus musculus, BaF3, single agent, read-out: Cell IC50 BaF3 EGFR L858R/T790M.
Setting [3] is: in combination with 1 μg/mL cetuximab, read-out: Cell IC50 BaF3 EGFR L858R/T790M (+cetux.).

EGFR L858R, sequence (P00533 25-1210 L858R): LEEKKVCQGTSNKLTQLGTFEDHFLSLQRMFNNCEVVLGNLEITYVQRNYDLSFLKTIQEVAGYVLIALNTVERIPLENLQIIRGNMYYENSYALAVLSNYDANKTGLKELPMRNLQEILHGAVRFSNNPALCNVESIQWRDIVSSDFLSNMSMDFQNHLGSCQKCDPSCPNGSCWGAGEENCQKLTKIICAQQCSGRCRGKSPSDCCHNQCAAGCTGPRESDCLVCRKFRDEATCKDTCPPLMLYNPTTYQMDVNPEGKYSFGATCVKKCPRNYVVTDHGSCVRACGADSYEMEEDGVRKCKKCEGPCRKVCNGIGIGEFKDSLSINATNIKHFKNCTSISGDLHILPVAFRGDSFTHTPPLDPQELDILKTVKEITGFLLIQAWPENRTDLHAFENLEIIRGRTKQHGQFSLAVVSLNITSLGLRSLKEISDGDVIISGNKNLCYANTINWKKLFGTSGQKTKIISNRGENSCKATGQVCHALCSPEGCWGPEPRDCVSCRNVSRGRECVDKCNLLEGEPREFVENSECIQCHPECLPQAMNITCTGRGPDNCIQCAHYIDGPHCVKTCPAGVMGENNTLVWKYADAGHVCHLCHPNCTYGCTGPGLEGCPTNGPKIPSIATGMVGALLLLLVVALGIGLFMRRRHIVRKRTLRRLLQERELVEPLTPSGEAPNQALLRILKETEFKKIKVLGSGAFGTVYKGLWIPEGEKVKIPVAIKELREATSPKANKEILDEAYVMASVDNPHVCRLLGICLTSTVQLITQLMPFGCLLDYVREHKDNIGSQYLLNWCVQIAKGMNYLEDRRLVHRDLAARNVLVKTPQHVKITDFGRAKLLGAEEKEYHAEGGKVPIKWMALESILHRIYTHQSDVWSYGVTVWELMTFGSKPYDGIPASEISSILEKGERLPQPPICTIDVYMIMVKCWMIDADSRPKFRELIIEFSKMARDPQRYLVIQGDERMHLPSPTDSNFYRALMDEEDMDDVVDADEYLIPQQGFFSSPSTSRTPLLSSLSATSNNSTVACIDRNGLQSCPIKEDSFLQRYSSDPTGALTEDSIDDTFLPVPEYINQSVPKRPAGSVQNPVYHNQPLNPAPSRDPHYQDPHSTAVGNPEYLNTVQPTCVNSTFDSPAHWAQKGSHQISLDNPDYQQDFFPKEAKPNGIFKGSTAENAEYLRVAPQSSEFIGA

Take `CN1CCC(F)(c2ccc(-c3ccc4c(c3)C(=O)N(C(c3nc5ccccc5[nH]3)c3cc(F)ccc3O)C4)cc2)CC1` (stereo not shown) [Compound 016, 2-[1H-Benzimidazol-2-yl-(5-fluoro-2-hydroxy-phenyl)methyl]-6-[4-(4-fluoro-1-methyl-4-piperidyl)phenyl]isoindolin-1-one; hydrochloride]: the IC50 against EGFR L858R/T790M is 0.7 nM; in assay [1] (setting [2]), 590 nM; in assay [1] (setting [3]), 10 nM; against EGFR L858R it was 3 nM.

As to `Cn1cc(-c2ccc(-c3ccc4c(c3)C(=O)N(C(c3nc5ccccc5[nH]3)c3cc(F)ccc3O)C4)cc2)cn1` (stereo not shown) [Compound 058, 2-[1H-benzimidazol-2-yl-(5-fluoro-2-hydroxy-phenyl)-methyl]-6-[4-(1-methylpyrazol-4-yl)phenyl]isoindolin-1-one; dihydrochloride], the IC50 against EGFR L858R/T790M worked out at 12 nM; in assay [1] (setting [2]), 1420 nM; in assay [1] (setting [3]) it was 20 nM; against EGFR L858R, 67 nM.

With `COc1ccc(F)cc1C(c1nc2ccccc2[nH]1)n1cc2ccc(-c3ccc(C4CCN(C)CC4)cc3)c(F)c2n1` (stereo not shown) [Compound 035, 2-[1H-benzimidazol-2-yl-(5-fluoro-2-methoxy-phenyl)methyl]-7-fluoro-6-[4-(1-methyl-4-piperidyl)phenyl]indazole], the IC50 against EGFR L858R/T790M was determined as 42 nM; in assay [1] (setting [2]), 3600 nM; in assay [1] (setting [3]) it was 530 nM; on EGFR L858R, 507 nM.

With `CN1CCC(c2ccc(-c3ccc4c(c3)C(=O)N(C(c3cccc(F)c3)c3nc5cccnc5[nH]3)C4)cc2)CC1` (stereo not shown) [Compound 025], the IC50 at EGFR L858R/T790M came out at 11 nM; in assay [1] (setting [2]), 3050 nM; in assay [1] (setting [3]) it was 180 nM; against EGFR L858R it was 150 nM.

For `CN1CCC(c2ccc(-c3ccc4c(c3)C(=O)N(C(c3nc5ccccc5[nH]3)c3cc(Cl)ccc3O)C4)cc2)CC1` (stereo not shown) [Compound 044, 2-[1H-benzimidazol-2-yl-(5-chloro-2-hydroxy-phenyl)-methyl]-6-[4-(1-methyl-4-piperidyl)phenyl]isoindolin-1-one; hydrochloride], the IC50 came to 2 nM against EGFR L858R/T790M, 1500 nM in assay [1] (setting [2]), 50 nM in assay [1] (setting [3]) and 6 nM at EGFR L858R.

For the molecule `CN1CCC(c2ccc(-c3ccc4c(c3)C(=O)N(C(c3nc5ccccc5[nH]3)c3cccc(F)c3O)C4)cc2)CC1` (stereo not shown) [Compound 042, 2-[1H-benzimidazol-2-yl-(3-fluoro-2-hydroxy-phenyl)-methyl]-6-[4-(1-methyl-4-piperidyl)phenyl]isoindolin-1-one; dihydrochloride], the IC50 is 13 nM against EGFR L858R/T790M, 4000 nM in assay [1] (setting [2]), 240 nM in assay [1] (setting [3]) and 31 nM against EGFR L858R.

For `[2H]C(c1nc2ccccc2[nH]1)(c1cc(F)ccc1O)N1Cc2ccc(-c3ccc(C4CCN(C)CC4)cc3)cc2C1=O` (stereo not shown) [Compound 036, 2-((1H-benzo[d]imidazol-2-yl)(5-fluoro-2-hydroxyphenyl)methyl-d)-6-(4-(1-methylpiperidin-4-yl)phenyl)isoindolin-1-one], the IC50 on EGFR L858R/T790M is 0.7 nM; in assay [1] (setting [2]), 170 nM; in assay [1] (setting [3]) it was 7 nM; against EGFR L858R, 2.6 nM.

In the case of `CN1CCC(c2ccc(-c3ccc4c(c3)C(=O)N(C(c3cccc(F)c3)c3nc5ccccc5[nH]3)C4)cc2)CC1` (stereo not shown) [Compound 026, 2-[1H-Benzimidazol-2-yl-(3-fluorophenyl)methyl]-6-[4-(1-methyl-4-piperidyl)phenyl]isoindolin-1-one], the IC50 against EGFR L858R/T790M stood at 7 nM; in assay [1] (setting [2]) it was 2280 nM; in assay [1] (setting [3]), 80 nM; against EGFR L858R, 26 nM.

For `Nc1ccc(C#Cc2ccc3c(c2)C(=O)N(C(c2nc4ccccc4[nH]2)c2cc(F)ccc2O)C3)cn1` (stereo not shown) [Compound 012, 6-[2-(6-Amino-3-pyridyl)ethynyl]-2-[1H-benzimidazol-2-yl-(5-fluoro-2-hydroxy-phenyl)methyl]isoindolin-1-one], the IC50 on EGFR L858R/T790M was found to be 6 nM; in assay [1] (setting [2]) it was 620 nM; in assay [1] (setting [3]), 10 nM; against EGFR L858R it was 48 nM.

For the molecule `CN1CCC(c2ccc(-c3ccc4c(c3)C(=O)N(C(c3ccn[nH]3)c3cc(F)ccc3O)C4)cc2)CC1` (stereo not shown) [Compound 045, 2-[(5-fluoro-2-hydroxy-phenyl)-(1H-pyrazol-3-yl)methyl]-6-[4-(1-methyl-4-piperidyl)phenyl]-isoindolin-1-one], the IC50 was 18 nM against EGFR L858R/T790M, 3740 nM in assay [1] (setting [2]), 1170 nM in assay [1] (setting [3]) and 32 nM against EGFR L858R.

As for `[2H]C1([2H])c2ccc(-c3ccc(C4CCN(C)CC4)cc3)cc2C(=O)N1C([2H])(c1nc2ccccc2[nH]1)c1cc(F)ccc1O` (stereo not shown) [Compound 039, 2-((1H-Benzo[d]imidazol-2-yl)(5-fluoro-2-hydroxyphenyl)methyl-d)-6-(4-(1-methylpiperidin-4-yl)phenyl)isoindolin-1-one-3,3-d2], the IC50 on EGFR L858R/T790M was 0.5 nM; in assay [1] (setting [2]) it was 280 nM; in assay [1] (setting [3]), 14 nM; on EGFR L858R it was 2.9 nM.

`CN1CCC(c2ccc(-c3ccc4ncn(C(c5nc6ccccc6[nH]5)c5cc(F)ccc5O)c(=O)c4c3)cc2F)CC1` (stereo not shown) [Compound 001, 3-[1H-Benzimidazol-2-yl-(5-fluoro-2-hydroxy-phenyl)methyl]-6-[3-fluoro-4-(1-methyl-4-piperidyl)phenyl]quinazolin-4-one; hydrochloride]: the IC50 at EGFR L858R/T790M is 0.4 nM; in assay [1] (setting [2]), 320 nM; in assay [1] (setting [3]), 9 nM; on EGFR L858R, 1 nM.

With `CN1CCC(n2cc(-c3ccc4c(c3)C(=O)N(C(c3nc5ccccc5[nH]3)c3cc(F)ccc3O)C4)cn2)CC1` (stereo not shown) [Compound 060, 2-[1H-benzimidazol-2-yl-(5-fluoro-2-hydroxy-phenyl)-methyl]-6-[1-(1-methyl-4-piperidyl)pyrazol-4-yl]isoindolin-1-one; hydrochloride], the IC50 was determined as 18 nM against EGFR L858R/T790M, 5500 nM in assay [1] (setting [2]), 110 nM in assay [1] (setting [3]) and 27 nM on EGFR L858R.

For `O=C1c2cc(-c3ccc(-c4cn[nH]c4)cc3)ccc2CN1C(c1nc2ccccc2[nH]1)c1cc(F)ccc1O` (stereo not shown) [Compound 057, 2-[1H-benzimidazol-2-yl-(5-fluoro-2-hydroxy-phenyl)-methyl]-6-[4-(1H-pyrazol-4-yl)-phenyl]isoindolin-1-one], the IC50 against EGFR L858R/T790M stood at 17 nM; in assay [1] (setting [2]) it was 550 nM; in assay [1] (setting [3]), 10 nM; at EGFR L858R it was 37 nM.

On to `CN1CCC(c2ccc(-c3ccc4c(n3)C(=O)N(C(c3nc5ccccc5[nH]3)c3cc(F)ccc3O)C4)cc2)CC1` (stereo not shown) [Compound 028, 6-[1H-Benzimidazol-2-yl-(5-fluoro-2-hydroxy-phenyl)methyl]-2-[4-(1-methyl-4-piperidyl)phenyl]-5H-pyrrolo[3,4-b]pyridin-7-one], for which the IC50 against EGFR L858R/T790M was 0.3 nM; in assay [1] (setting [2]), 1360 nM; in assay [1] (setting [3]) it was 30 nM; at EGFR L858R, 2 nM.

Take `Cc1ccc2[nH]c(C(c3cc(F)ccc3O)N3Cc4ccc(-c5ccc(C6CCN(C)CC6)cc5)cc4C3=O)nc2c1` (stereo not shown) [Compound 050, 2-[(5-fluoro-2-hydroxy-phenyl)-(5-methyl-1H-benzimidazol-2-yl)methyl]-6-[4-(1-methyl-4-piperidyl)phenyl]isoindolin-1-one; formic acid]: the IC50 against EGFR L858R/T790M came to 2 nM; in assay [1] (setting [2]), 3850 nM; in assay [1] (setting [3]), 850 nM; against EGFR L858R it was 21 nM.
